The target in test [1] is T1, human somatostatin receptor subtype 5 (Homo sapiens, UniProt P35346).
T1 construct: expressed in transfected cells
Put plainly: cAMP assay for SST5R (inhibition of cAMP in CHO-K1 cells). Type of test: cell-based. Conditions: for EC50: inhibition of cAMP via human SST5 receptor, read-out: SST5 potency; for Fold selectivity for SST5 vs SST2: class symbols, SST5 receptor over SST2 receptor. An outline of the steps: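 CHO-K1 cells stably expressing human SSTR5 were treated 20 min at 37 °C with compounds plus 1.6 μM NKH477 in HBSS, 0.5 mM HEPES pH 7.4, 0.1% BSA, 0.2 mM IBMX. Lysate cAMP measured by HTRF against a standard curve; EC50 from cAMP-versus-concentration plots.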
For orientation: Changes in cAMP serve as a functional read-out for many G protein-coupled receptors.

Test [2] deals with T2, human somatostatin receptor subtype 2 (Homo sapiens, UniProt P30874).
T2 construct: expressed in transfected cells
T2 sequence (P30874 whole entry): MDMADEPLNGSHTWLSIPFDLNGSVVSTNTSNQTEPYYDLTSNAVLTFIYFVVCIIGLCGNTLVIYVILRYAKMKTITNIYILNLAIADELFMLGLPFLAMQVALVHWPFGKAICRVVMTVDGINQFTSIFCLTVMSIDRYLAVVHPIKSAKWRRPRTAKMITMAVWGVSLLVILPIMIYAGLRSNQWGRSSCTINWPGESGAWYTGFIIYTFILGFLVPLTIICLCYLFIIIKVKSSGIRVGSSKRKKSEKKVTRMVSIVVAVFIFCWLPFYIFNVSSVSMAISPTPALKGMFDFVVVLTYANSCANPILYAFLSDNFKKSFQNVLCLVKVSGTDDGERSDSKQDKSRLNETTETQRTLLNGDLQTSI
Put plainly: cAMP assay for SST2R (inhibition of cAMP in CHO-K1 cells). Format: cell-based. Conditions: Table B; inhibition of cAMP via human SST2 receptor; read-out: SST2 potency. An outline of the steps: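 Agonism read as decrease in NKH477 (1.6 μM)-stimulated cAMP: compounds applied 20 min, 37° C, with 0.2 mM IBMX, to CHO-K1 stably expressing human SSTR2. cAMP quantified in lysates by time-resolved fluorescence (HTRF kit, 1-24 h RT), standard-curve regression, then EC50.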

Structures are written as SMILES. Like-named read-outs stand apart in the source and are kept apart here. Some results are limits rather than exact numbers.

T1 sequence (P35346 whole entry): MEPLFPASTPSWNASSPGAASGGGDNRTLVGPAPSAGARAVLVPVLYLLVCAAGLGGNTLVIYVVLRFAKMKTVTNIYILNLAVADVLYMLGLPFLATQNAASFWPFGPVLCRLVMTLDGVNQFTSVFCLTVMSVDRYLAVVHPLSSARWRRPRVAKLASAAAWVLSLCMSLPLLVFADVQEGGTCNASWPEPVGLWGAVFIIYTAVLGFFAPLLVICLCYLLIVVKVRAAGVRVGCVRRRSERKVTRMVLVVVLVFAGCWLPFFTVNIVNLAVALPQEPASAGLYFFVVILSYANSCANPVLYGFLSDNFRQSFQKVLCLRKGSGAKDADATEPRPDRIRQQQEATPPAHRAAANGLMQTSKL

On to `C[C@H](NC(=O)c1cnc(C#N)c(-c2cc(F)cc(F)c2)c1N1CC[C@H](N)C1)C(F)(F)F` [1-71, 4-[(3S)-3-aminopyrrolidin-1-yl]-6-cyano-5-(3,5-difluorophenyl)-N-[(2S)-1,1,1-trifluoropropan-2-yl]pyridine-3-carboxamide], for which the EC50 in test [1] (Table A) is less than 10 nM; in test [1] (Table B) it was less than 10 nM; in test [2], 100 to 1000 nM. For the same compound, the “Fold selectivity for SST5 vs SST2” value in test [1] (Table B) is given as “+++ (+++=>500)”.

Turning to `CCC(CC)NC(=O)c1cnc(C#N)c(-c2cc(F)cc(F)c2)c1N1CC[C@H](N)C1` [1-72, 4-[(3S)-3-aminopyrrolidin-1-yl]-6-cyano-5-(3,5-difluorophenyl)-N-(pentan-3-yl)pyridine-3-carboxamide], the figures for the EC50 in test [1] (Table A), in test [1] (Table B) and in test [2] were less than 10 nM, less than 10 nM and 100 to 1000 nM, respectively. Further, the “Fold selectivity for SST5 vs SST2” value in test [1] (Table B) was “+++ (+++=>500)”.

In the case of `N#Cc1ncc(C(=O)NC2CCCCCC2)c(N2CC[C@H](N)C2)c1-c1cc(F)cc(F)c1` [1-73, 4-[(3S)-3-aminopyrrolidin-1-yl]-6-cyano-N-cycloheptyl-5-(3,5-difluorophenyl)pyridine-3-carboxamide], the EC50 in test [1] (Table A) was less than 10 nM; in test [1] (Table B), less than 10 nM; in test [2] it was more than 1000 nM. The “Fold selectivity for SST5 vs SST2” value in test [1] (Table B) is on record as “+++ (+++=>500)”.

For the compound `Cc1ncc(C(=O)NC23CC(C2)C3)c(N2CC[C@](C)(N)C2)c1-c1cc(F)cc(F)c1` [1-74, 4-[(3S)-3-amino-3-methylpyrrolidin-1-yl]-N-{bicyclo[1.1.1]pentan-1-yl}-5-(3,5-difluorophenyl)-6-methylpyridine-3-carboxamide], the EC50 is less than 10 nM in test [1] (Table A), less than 10 nM in test [1] (Table B) and more than 1000 nM in test [2]. Besides, the “Fold selectivity for SST5 vs SST2” value in test [1] (Table B) was “+++ (+++=>500)”.

For `CCC(CC)NC(=O)c1cnc(C#N)c(-c2cc(F)cc(F)c2)c1N1CC[C@](C)(N)C1` [1-76, 4-[(3S)-3-amino-3-methylpyrrolidin-1-yl]-6-cyano-5-(3,5-difluorophenyl)-N-(pentan-3-yl)pyridine-3-carboxamide], the EC50 in test [1] (Table A) was less than 10 nM; in test [1] (Table B), less than 10 nM; in test [2] it was more than 1000 nM. Also, in test [1] (Table B), the “Fold selectivity for SST5 vs SST2” value is given as “+++ (+++=>500)”.

`C[C@H](NC(=O)c1cnc(C#N)c(-c2cc(F)cc(F)c2)c1N1CC[C@](C)(N)C1)C1CC1` [1-77, 4-[(3S)-3-amino-3-methylpyrrolidin-1-yl]-6-cyano-N-[(1S)-1-cyclopropylethyl]-5-(3,5-difluorophenyl)pyridine-3-carboxamide]: the EC50 in test [1] (Table A) is less than 10 nM; in test [1] (Table B), less than 10 nM; in test [2], 10 to 100 nM. The “Fold selectivity for SST5 vs SST2” value in test [1] (Table B) is “+++ (+++=>500)”.

Regarding `C[C@]1(N)CCN(c2c(C(=O)NC3CCCC3)cnc(C#N)c2-c2cc(F)cc(F)c2)C1` [1-78, 4-[(3S)-3-amino-3-methylpyrrolidin-1-yl]-6-cyano-N-cyclopentyl-5-(3,5-difluorophenyl)pyridine-3-carboxamide], the results for the EC50 in test [1] (Table A), in test [1] (Table B) and in test [2] were less than 10 nM, less than 10 nM and 10 to 100 nM, respectively. Also, in test [1] (Table B), the “Fold selectivity for SST5 vs SST2” value was “+++ (+++=>500)”.

For the compound `C[C@]1(N)CCN(c2c(C(=O)NC3CC(F)(F)C3)cnc(C#N)c2-c2cc(F)cc(F)c2)C1` [1-79, 4-[(3S)-3-amino-3-methylpyrrolidin-1-yl]-6-cyano-N-(3,3-difluorocyclobutyl)-5-(3,5-difluorophenyl)pyridine-3-carboxamide], the EC50 in test [1] (Table A) is less than 10 nM; in test [1] (Table B) it was less than 10 nM; in test [2], 100 to 1000 nM. Further, the “Fold selectivity for SST5 vs SST2” value in test [1] (Table B) is “+++ (+++=>500)”.

As for `N#Cc1ncc(C(=O)NC2CCCCC2)c(N2CC[C@H](N)C2)c1-c1cc(F)cc(F)c1` [1-81, 4-[(3S)-3-aminopyrrolidin-1-yl]-6-cyano-N-cyclohexyl-5-(3,5-difluorophenyl)pyridine-3-carboxamide], the EC50 in test [1] (Table A) is less than 10 nM; in test [1] (Table B) it was less than 10 nM; in test [2], 100 to 1000 nM. Moreover, the “Fold selectivity for SST5 vs SST2” value in test [1] (Table B) is on record as “+++ (+++=>500)”.

In the case of `CC(C)CNC(=O)c1cnc(C#N)c(-c2cc(F)cc(F)c2)c1N1CC[C@](C)(N)C1` [1-85, 4-[(3S)-3-amino-3-methylpyrrolidin-1-yl]-6-cyano-5-(3,5-difluorophenyl)-N-(2-methylpropyl)pyridine-3-carboxamide], the EC50 in test [1] (Table A) was less than 10 nM; in test [1] (Table B), less than 10 nM; in test [2], 100 to 1000 nM. Moreover, in test [1] (Table B), the “Fold selectivity for SST5 vs SST2” value was “+++ (+++=>500)”.

Regarding `C[C@]1(N)CCN(c2c(C(=O)NCC3CC3)cnc(C#N)c2-c2cc(F)cc(F)c2)C1` [1-86, 4-[(3S)-3-amino-3-methylpyrrolidin-1-yl]-6-cyano-N-(cyclopropylmethyl)-5-(3,5-difluorophenyl)pyridine-3-carboxamide], the EC50 in test [1] (Table A) was less than 10 nM; in test [1] (Table B) it was less than 10 nM; in test [2], 100 to 1000 nM. In addition, in test [1] (Table B), the “Fold selectivity for SST5 vs SST2” value is recorded as “+++ (+++=>500)”.

As to `C[C@]1(N)CCN(c2c(C(=O)NC3CCC3)cnc(C#N)c2-c2cc(F)cc(F)c2)C1` [1-87, 4-[(3S)-3-amino-3-methylpyrrolidin-1-yl]-6-cyano-N-cyclobutyl-5-(3,5-difluorophenyl)pyridine-3-carboxamide], the EC50 in test [1] (Table A) is less than 10 nM; in test [1] (Table B), less than 10 nM; in test [2], 100 to 1000 nM. Moreover, the “Fold selectivity for SST5 vs SST2” value in test [1] (Table B) is “+++ (+++=>500)”.

For the compound `N#Cc1ncc(C(=O)NC23CC(C2)C3)c(N2CC[C@H](N)C2)c1-c1cc(F)cc(Cl)c1` [1-90, 4-[(3S)-3-aminopyrrolidin-1-yl]-N-{bicyclo[1.1.1]pentan-1-yl}-5-(3-chloro-5-fluorophenyl)-6-cyanopyridine-3-carboxamide], the values for the EC50 in test [1] (Table A), in test [1] (Table B) and in test [2] were less than 10 nM, less than 10 nM and 100 to 1000 nM, respectively. Further, in test [1] (Table B), the “Fold selectivity for SST5 vs SST2” value was “+++ (+++=>500)”.

For the compound `CC(C)NC(=O)c1cnc(C#N)c(-c2cc(F)cc(F)c2)c1N1CC[C@](C)(N)C1` [1-91, 4-[(3S)-3-amino-3-methylpyrrolidin-1-yl]-6-cyano-5-(3,5-difluorophenyl)-N-(propan-2-yl)pyridine-3-carboxamide], the EC50 was less than 10 nM in test [1] (Table A), less than 10 nM in test [1] (Table B) and 100 to 1000 nM in test [2]. Also, the “Fold selectivity for SST5 vs SST2” value in test [1] (Table B) is given as “+++ (+++=>500)”.

As to `C[C@]1(N)CCN(c2c(C(=O)NCC(F)(F)F)cnc(C#N)c2-c2cc(F)cc(F)c2)C1` [1-92, 4-[(3S)-3-amino-3-methylpyrrolidin-1-yl]-6-cyano-5-(3,5-difluorophenyl)-N-(2,2,2-trifluoroethyl)pyridine-3-carboxamide], the EC50 is less than 10 nM in test [1] (Table A), less than 10 nM in test [1] (Table B) and 100 to 1000 nM in test [2]. Besides, the “Fold selectivity for SST5 vs SST2” value in test [1] (Table B) is “+++ (+++=>500)”.

For `C[C@]1(N)CCN(c2c(C(=O)NC3CCCCC3)cnc(C#N)c2-c2cc(F)cc(F)c2)C1` [1-93, 4-[(3S)-3-amino-3-methylpyrrolidin-1-yl]-6-cyano-N-cyclohexyl-5-(3,5-difluorophenyl)pyridine-3-carboxamide], the EC50 in test [1] (Table A) is less than 10 nM; in test [1] (Table B) it was less than 10 nM; in test [2], 10 to 100 nM. Also, in test [1] (Table B), the “Fold selectivity for SST5 vs SST2” value is listed as “+++ (+++=>500)”.

As to `COc1cc(C#N)cc(-c2cncc(C(=O)NC34CC(C3)C4)c2N2CC[C@](C)(N)C2)c1` [1-94, 4-[(3S)-3-amino-3-methylpyrrolidin-1-yl]-N-{bicyclo[1.1.1]pentan-1-yl}-5-(3-cyano-5-methoxyphenyl)pyridine-3-carboxamide], the results for the EC50 in test [1] (Table A), in test [1] (Table B) and in test [2] were less than 10 nM, less than 10 nM and 100 to 1000 nM, respectively. Also, in test [1] (Table B), the “Fold selectivity for SST5 vs SST2” value is “++ (++=100 to 499)”.

As for `COc1cc(C#N)cc(-c2cncc(C(=O)N[C@@H](C)C3CC3)c2N2CC[C@](C)(N)C2)c1` [1-96, 4-[(3S)-3-amino-3-methylpyrrolidin-1-yl]-5-(3-cyano-5-methoxyphenyl)-N-[(1S)-1-cyclopropylethyl]pyridine-3-carboxamide], the EC50 was less than 10 nM in test [1] (Table A), less than 10 nM in test [1] (Table B) and 100 to 1000 nM in test [2]. In addition, the “Fold selectivity for SST5 vs SST2” value in test [1] (Table B) is given as “++ (++=100 to 499)”.

Consider `N#Cc1ncc(C(=O)NC23CC(C2)C3)c(N2CC[C@@](N)(CO)C2)c1-c1cc(F)cc(F)c1` [1-98, 4-[(3S)-3-amino-3-(hydroxymethyl)pyrrolidin-1-yl]-N-{bicyclo[1.1.1]pentan-1-yl}-6-cyano-5-(3,5-difluorophenyl)pyridine-3-carboxamide], for which the EC50 was less than 10 nM in test [1] (Table A), less than 10 nM in test [1] (Table B) and 100 to 1000 nM in test [2]. The “Fold selectivity for SST5 vs SST2” value in test [1] (Table B) is given as “++ (++=100 to 499)”.

Consider `CC(N)C1CN(c2c(C(=O)NC34CC(C3)C4)cnc(C#N)c2-c2cc(F)cc(F)c2)C1` (stereo not drawn) [1-100, 4-[3-(1-aminoethyl)azetidin-1-yl]-N-{bicyclo[1.1.1]pentan-1-yl}-6-cyano-5-(3,5-difluorophenyl)pyridine-3-carboxamide], for which the EC50 in test [1] (Table A) was less than 10 nM; in test [1] (Table B) it was less than 10 nM; in test [2] it was more than 1000 nM. The “Fold selectivity for SST5 vs SST2” value in test [1] (Table B) is recorded as “+++ (+++=>500)”.

As for `N#Cc1ncc(C(=O)NC23CC(C2)C3)c(N2C[C@@H](N)[C@H](F)C2)c1-c1cc(F)cc(F)c1` [1-101, 4-[(3R,4R)-3-amino-4-fluoropyrrolidin-1-yl]-N-{bicyclo[1.1.1]pentan-1-yl}-6-cyano-5-(3,5-difluorophenyl)pyridine-3-carboxamide], the results for the EC50 in test [1] (Table A), in test [1] (Table B) and in test [2] were less than 10 nM, less than 10 nM and more than 1000 nM, respectively. Moreover, the “Fold selectivity for SST5 vs SST2” value in test [1] (Table B) is listed as “+++ (+++=>500)”.

These data come from patent US12600709B2, “Nonpeptide somatostatin type 5 receptor agonists and uses thereof” (Crinetics Pharmaceuticals, Inc., priority 2019, dated 2026).
